Laboratory results: patent US7109220B2, “Amino substituted pyridinyl methanone compounds useful in treating kinase disorders” (Janssen Pharmaceutica N.V., priority 2003, dated 2006)

Experiments:
Assay type in all cases: biochemical
CDK1:Cyclin-B = biological target: T1, CDK1:Cyclin-B (Homo sapiens, UniProt P06493); assay: CDK1 Screening Assay; details: 10 μM ATP, histone-H1 peptide substrate, 1 hour at 30° C.
T1 construct: purchased New England Biolabs, Beverly, Mass; (CDK1); BIOMOL, Plymouth Meeting, Pa; (Cyclin-B) #6020 (CDK1); #SE-195 (Cyclin-B); host or cells: insect cells
T1 sequence (P06493 whole entry): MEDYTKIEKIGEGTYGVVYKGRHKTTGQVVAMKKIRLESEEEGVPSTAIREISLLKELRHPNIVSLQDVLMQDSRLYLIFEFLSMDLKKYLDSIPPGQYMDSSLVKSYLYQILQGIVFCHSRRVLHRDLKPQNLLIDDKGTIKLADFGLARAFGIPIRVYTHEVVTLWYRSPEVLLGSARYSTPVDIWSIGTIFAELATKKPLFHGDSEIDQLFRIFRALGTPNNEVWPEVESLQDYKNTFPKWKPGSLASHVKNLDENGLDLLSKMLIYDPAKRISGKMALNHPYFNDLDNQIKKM
T1 sequence (P14635 whole entry partner): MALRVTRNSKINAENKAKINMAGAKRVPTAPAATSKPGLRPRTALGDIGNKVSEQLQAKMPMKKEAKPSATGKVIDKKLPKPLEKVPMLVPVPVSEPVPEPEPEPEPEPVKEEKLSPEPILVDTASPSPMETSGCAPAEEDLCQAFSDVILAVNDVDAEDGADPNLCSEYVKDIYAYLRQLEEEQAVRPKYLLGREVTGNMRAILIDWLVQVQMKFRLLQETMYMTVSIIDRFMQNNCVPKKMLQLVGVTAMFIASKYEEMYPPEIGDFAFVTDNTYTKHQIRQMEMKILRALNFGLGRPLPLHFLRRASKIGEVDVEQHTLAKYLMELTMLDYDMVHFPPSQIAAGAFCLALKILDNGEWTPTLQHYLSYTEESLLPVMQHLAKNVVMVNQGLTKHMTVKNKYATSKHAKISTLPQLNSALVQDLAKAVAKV
Protocol: (§1) A kinase reaction mixture was prepared containing 50 mM Tris-HCl pH=8, 10 mM MgCl2, 0.1 mM Na3PO4, 1 mM DTT, 10 μM ATP, 0.025 μM biotinylated histone-H1 peptide substrate and 0.2 μCuries per well^33P-γ-ATP [2000–3000 Ci/mmol]. 70 μL of the kinase reaction mixture was dispensed into the well of a streptavidin coated FlashPlate™ (Cat. #SMP103, NEN, Boston, Mass.). Then 1 μL of test compound stock in 100% DMSO was added to the wells resulting in a final concentration of 1% DMSO in the reaction with a 100 μL final reaction volume. CDK1:Cyclin-B protein^1 was diluted in 50 mM Tris-HCl pH=8.0, 0.1% BSA at a concentration of 1 ng per microliter. 30 μL (30 ng enzyme per test well) was added to each well to initiate the reaction, The reaction was incubated for one hour at 30° C. At the end of the 1-hour incubation, the reaction was terminated by aspirating the reaction mixture from the plate and washing the wells twice with PBS containing 100 mM EDTA. The histone-H1 biotinylated peptide substrate became immobilized on the Flashplate™ and the incorporation of ^33P-γ-ATP was measured by reading the plate on a scintillation counter. Inhibition of the enzymatic activity of CDK1 was measured by observing a reduced amount of ^33P-γ-ATP incorporated into the immobilized peptide. ^1CDK1 (cyclin dependent kinase 1) was isolated from insect cells expressing both the human CDK1 catalytic subunit and its positive regulatory subunit Cyclin B (CDK1: New England Biolabs, Beverly, Mass., Cat. #6020; Cyclin-B: BIOMOL, Plymouth Meeting, Pa., Cat. #SE-195); Peptide Substrate (Biotin)KTPKKAKKPKTPKKAKKL-Amide.
(§2) IC50 values listed as >10 or >100 indicate no observed 50% inhibition at the highest dose tested, nor was an inhibition maximum observed.

VEGF-R2 kinase = biological target: T2, VEGF-R2 kinase (Rattus norvegicus, UniProt O08775); assay: VEGF-R2 Kinase Screening Assay; details: soluble rat VEGF-R2 kinase, 10 μM ATP; read-out: VEGF-R IC50
T2 construct: polyhistidine (N)
T2 sequence (O08775 786-1343): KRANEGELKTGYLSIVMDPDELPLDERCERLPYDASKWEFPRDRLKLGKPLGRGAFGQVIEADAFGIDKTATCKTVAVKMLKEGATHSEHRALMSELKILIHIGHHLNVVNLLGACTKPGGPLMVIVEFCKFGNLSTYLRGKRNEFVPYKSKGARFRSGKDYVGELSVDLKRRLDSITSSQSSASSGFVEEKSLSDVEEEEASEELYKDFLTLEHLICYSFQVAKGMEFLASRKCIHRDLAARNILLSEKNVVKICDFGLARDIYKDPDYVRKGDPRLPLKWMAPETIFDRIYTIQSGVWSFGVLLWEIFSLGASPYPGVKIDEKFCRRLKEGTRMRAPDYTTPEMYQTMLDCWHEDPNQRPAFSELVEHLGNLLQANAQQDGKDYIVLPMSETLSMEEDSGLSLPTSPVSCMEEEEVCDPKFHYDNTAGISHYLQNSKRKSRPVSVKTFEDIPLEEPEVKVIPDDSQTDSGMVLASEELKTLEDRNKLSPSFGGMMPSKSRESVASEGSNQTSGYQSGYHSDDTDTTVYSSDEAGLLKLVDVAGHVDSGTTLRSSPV
Protocol: (§3) A kinase reaction mixture was prepared containing 50 mM Tris-HCl pH=8, 10 mM MgCl2, 0.1 mM Na3PO4, 1 mM DTT, 10 μM ATP, 0.025 uM biotinylated peptide substrate and 0.8 μCuries per well^33P-γ-ATP [2000–3000 Ci/mmol]. 70 μL of the kinase reaction mixture was dispensed into the well of a streptavidin coated FlashPlate™ (Cat. #SMP103, NEN, Boston, Mass.). 1 μL of test compound stock in 100% DMSO was added to the wells resulting in a final concentration of 1% DMSO in the mixture with a 100 μL final reaction volume. Soluble rat VEGF-R2 kinase^3 was diluted in 50 mM Tris-HCl pH=8.0, 0.1% BSA at a concentration of 5 ng per microliter and 30 μL (150 ng enzyme per test well) was added to each well to initiate the reaction. The reaction was incubated for one hour at 30° C. At the end of the 1-hour incubation, the reaction was terminated by aspirating the reaction mixture from the plate and washing the wells twice with PBS containing 100 mM EDTA. The PLC1 biotinylated peptide substrate became immobilized on the Flashplate™ and the incoporation of ^33P-γ-ATP was measured by reading the plate on a scintillation counter. Inhibition of the enzymatic activity of the VEGF-R was measured by observing a reduced amount of ^33P-γ-ATP incorporated into the immobilized peptide. ^3VEGF-R2 kinase (Vascular Endothelial Growth Factor Receptor-2): a fusion protein containing a polyhistidine tag at the N-terminus followed by amino acids 786–1343 of the rat VEGF-R2 kinase domain GenBank Accession #U93306); Peptide Substrate (Biotin)KHKKLAEGSAYEEV-Amide
as §2

CDK2:Cyclin-E = biological target: T3, CDK2:Cyclin-E (Homo sapiens, UniProt P24941); assay: CDK2 Screening Assay; details: 10 μM ATP, histone-H1 peptide substrate
T3 construct: purchased Upstate Biotechnology, Lake Placid, N.Y
Protocol: as §1
Using the procedure and materials of Example 1, replacing CDK1:Cyclin-B protein with CDK2:Cyclin-E protein^2, the IC50 data for CDK2 is shown in Table 2. ^2CDK2 (cyclin dependent kinase 2) in complex with cyclin E is commercially available (Upstate Biotechnology, Lake Placid, N.Y.); Peptide Substrate (Biotin)KTPKKAKKPKTPKKAKKL-Amide
IC50 values listed as ˜100 indicate no observed 50% inhibition at the highest dose tested, nor was an inhibition maximum observed.

HER2 kinase = biological target: T4, HER2 kinase (Homo sapiens, UniProt P04626); assay: HER-2 Kinase Screening Assay; details: HER2 cytoplasmic domain construct, 10 μM ATP
T4 construct: polyhistidine (N); 24 additional non-native amino acids (between the His tag and HER2) (N)
T4 sequence (P04626 676-1255 limits assumed): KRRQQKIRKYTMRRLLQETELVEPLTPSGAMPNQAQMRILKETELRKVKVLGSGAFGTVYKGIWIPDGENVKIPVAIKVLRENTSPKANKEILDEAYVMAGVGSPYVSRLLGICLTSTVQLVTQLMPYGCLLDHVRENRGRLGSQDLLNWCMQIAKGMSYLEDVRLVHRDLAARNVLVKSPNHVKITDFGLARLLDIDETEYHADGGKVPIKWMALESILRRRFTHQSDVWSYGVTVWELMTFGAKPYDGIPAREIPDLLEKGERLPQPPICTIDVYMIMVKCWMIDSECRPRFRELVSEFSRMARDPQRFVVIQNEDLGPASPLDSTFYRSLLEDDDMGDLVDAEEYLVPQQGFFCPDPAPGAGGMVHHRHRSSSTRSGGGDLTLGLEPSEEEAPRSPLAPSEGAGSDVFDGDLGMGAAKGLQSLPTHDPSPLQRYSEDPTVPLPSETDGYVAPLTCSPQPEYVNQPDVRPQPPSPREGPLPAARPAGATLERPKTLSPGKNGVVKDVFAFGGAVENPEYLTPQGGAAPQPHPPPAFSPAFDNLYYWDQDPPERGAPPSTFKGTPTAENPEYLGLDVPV
Protocol: as §3
Using the procedure and materials of Example 3, replacing VEGF-R2 kinase with HER2^4, the IC50 data for HER2 kinase is shown in Table 4. ^4HER2 (Human Epidermal Growth Factor Receptor-2): a construct containing a polyhistidine tag at the N-terminus followed by 24 additional non-native amino acids beginning at amino acid 676 (Accession number M11730) followed by the remainder of the HER2 cytoplasmic domain; Peptide Substrate (Biotin)KHKKLAEGSAYEEV-Amide.
IC50 values listed as >100 indicate no observed 50% inhibition at the highest dose tested, nor was an inhibition maximum observed.

Row | Compound | IC50 (CDK1:Cyclin-B) [µM] | IC50 (VEGF-R2 kinase) [µM] | IC50 (CDK2:Cyclin-E) [µM] | IC50 (HER2 kinase) [µM]
1 | Nc1nc(Nc2ccccc2[N+](=O)[O-])ccc1C(=O)c1c(F)cccc1F [Cpd 12, [2-amino-6-[(2-nitrophenyl)amino]-3-pyridinyl](2,6-difluorophenyl)methanone] | > 10 | > 10 |  | 
2 | Nc1ccc(C(=O)c2ccco2)c(N)n1 [Cpd 4, (2,6-diamino-3-pyridinyl)-2-furylmethanone] | > 100 | > 100 |  | 
3 | CCCCOc1cc(NC(=O)Nc2ccccc2)nc(N)c1C(=O)c1c(F)cccc1F [Cpd 32, 1-[6-Amino-4-butoxy-5-(2,6-difluoro-benzoyl)-pyridin-2-yl]-3-phenyl-urea] | > 100 | > 100 | ≥ 100 | > 100
4 | CCN(CC)S(=O)(=O)c1ccc(Nc2ccc(C(=O)c3ccccc3)c(N)n2)cc1 [Cpd 26, 4-[(6-amino-5-benzoyl-2-pyridinyl)amino]-N,N-diethylbenzenesulfonamide] | > 100 | > 100 |  | 
5 | CN(C)S(=O)(=O)c1ccc(Nc2ccc(C(=O)c3ccco3)c(N)n2)cc1 [Cpd 27, 4-[[6-amino-5-(2-furanylcarbonyl)-2-pyridinyl]amino]-N,N-dimethyl benzenesulfonamide] |  | > 100 |  | 
6 | Nc1ccc(C(=O)c2ccccc2)c(N)n1 [Cpd 3, (2,6-diamino-3-pyridinyl)phenylmethanone] |  | > 10 |  | 
7 | 4-[[6-amino-5-(2,6-difluorobenzoyl)-2-pyridinyl]amino]benzonitrile [Cpd 15] | 0.95 | > 10 |  | 
8 | CCN(CC)S(=O)(=O)c1ccc(Nc2ccc(C(=O)c3ccco3)c(N)n2)cc1 [Cpd 28, 4-[[6-amino-5-(2-furanylcarbonyl)-2-pyridinyl]amino]-N,N-diethylbenzenesulfonamide] | > 100 | > 100 |  | 
9 | Nc1ccccc1Nc1ccc(C(=O)c2c(F)cccc2F)c(N)n1 [Cpd 20, [2-amino-6-[(2-aminophenyl)amino]-3-pyridinyl](2,6-difluorophenyl)methanone] |  | > 100 |  | 
10 | Nc1nc(Nc2ccc(S(=O)(=O)N(Cc3ccccc3)Cc3ccccc3)cc2)ccc1C(=O)c1c(F)cccc1F [Cpd 2b, 4-[[6-amino-5-(2,6-difluorobenzoyl)-2-pyridinyl]amino]-N,N-bis(phenylmethyl)benzenesulfonamide] | > 10 | > 10 |  | 
11 | Nc1ccc(Nc2ccc(C(=O)c3c(F)cccc3F)c(N)n2)cc1 [Cpd 17, [2-amino-6-[(4-aminophenyl)amino]-3-pyridinyl](2,6-difluorophenyl)methanone] |  | > 10 |  | 
12 | CC(=O)Nc1ccccc1Nc1ccc(C(=O)c2c(F)cccc2F)c(N)n1 [Cpd 21, N-[2-[[6-amino-5-(2,6-difluorobenzoyl)-2-pyridinyl]amino]phenyl]acetamide] | > 100 | > 100 |  | 
13 | CN(C)S(=O)(=O)c1ccc(Nc2ccc(C(=O)c3ccccc3F)c(N)n2)cc1 [Cpd 24, 4-[[6-amino-5-(2-fluorobenzoyl)-2-pyridinyl]amino]-N,N-dimethyl benzenesulfonamide] |  | > 100 |  | 
14 | Nc1nc(Nc2ccccc2)ccc1C(=O)c1c(F)cccc1F [Cpd 13, [2-amino-6-(phenylamino)-3-pyridinyl](2,6-difluorophenyl)methanone] | 21.7 | > 100 |  | 
15 | Nc1nc(Nc2ccc(C(=O)O)cc2)ccc1C(=O)c1c(F)cccc1F [Cpd 16, 4-[[6-amino-5-(2,6-difluorobenzoyl)-2-pyridinyl]amino]benzoic acid] |  | > 10 |  | 
16 | Nc1ccc(C(=O)c2cccs2)c(N)n1 [Cpd 5, (2,6-diamino-3-pyridinyl)-2-thienylmethanone] | > 100 | > 100 |  | 
17 | Nc1nc(Nc2ccc(S(N)(=O)=O)cc2)ccc1C(=O)c1c(F)cccc1F [Cpd 6, 4-[[6-amino-5-(2,6-difluorobenzoyl)-2-pyridinyl]amino]benzenesulfonamide] |  | > 10 |  | 
18 | Nc1nc(Nc2ccccn2)ccc1C(=O)c1c(F)cccc1F [Cpd 14, [2-amino-6-(2-pyridinylamino)-3-pyridinyl](2,6-difluorophenyl)methanone] |  | > 100 |  | 
19 | Nc1nc(Nc2ccc(NS(=O)(=O)c3ccccc3)cc2)ccc1C(=O)c1c(F)cccc1F [Cpd 19, N-[4-[[6-amino-5-(2,6-difluorobenzoyl)-2-pyridinyl]amino]phenyl]benzenesulfonamide] |  | > 10 |  | 
20 | Nc1nc(Nc2cccc([N+](=O)[O-])c2)ccc1C(=O)c1c(F)cccc1F [Cpd 10, [2-amino-6-[(3-nitrophenyl)amino]-3-pyridinyl](2,6-difluorophenyl)methanone] |  | > 100 |  | 
21 | Nc1nc(Nc2ccccc2NS(=O)(=O)c2ccccc2)ccc1C(=O)c1c(F)cccc1F [Cpd 23, N-[2-[[6-amino-5-(2,6-difluorobenzoyl)-2-pyridinyl]amino]phenyl]benzenesulfonamide] | > 100 | > 100 |  | 
22 | CN(C)S(=O)(=O)c1ccc(Nc2ccc(C(=O)c3cccs3)c(N)n2)cc1 [Cpd 29, 4-[[6-amino-5-(2-thienylcarbonyl)-2-pyridinyl]amino]-N,N-dimethylbenzene sulfonamide] |  | > 100 |  | 
23 | Nc1nc(Nc2cccc(Cl)c2)ccc1C(=O)c1c(F)cccc1F [Cpd 11, [2-amino-6-[(3-chlorophenyl)amino]-3-pyridinyl](2,6-difluorophenyl)methanone] | 6.16 | > 100 |  | 
24 | Nc1nc(Nc2ccccc2NC(=O)c2ccccc2)ccc1C(=O)c1c(F)cccc1F [Cpd 22, N-[2-[[6-amino-5-(2,6-difluorobenzoyl)-2-pyridinyl]amino]phenyl]benzamide] | > 100 | > 100 |  | 
25 | CNc1ccc(Nc2ccc(C(=O)c3c(F)cccc3F)c(N)n2)cc1 [Cpd 18, [2-amino-6-[[4-(methylamino)phenyl]amino]-3-pyridinyl](2,6-difluorophenyl)methanone] |  | > 10 |  | 
26 | Nc1ccc(C(=O)c2ccccc2F)c(N)n1 [Cpd 2, (2,6-diamino-3-pyridinyl)(2-fluorophenyl)methanone] |  | > 10 |  | 
27 | CN(C)S(=O)(=O)c1ccc(Nc2ccc(C(=O)c3ccccc3)c(N)n2)cc1 [Cpd 25, 4-[(6-amino-5-benzoyl-2-pyridinyl)amino]-N,N-dimethylbenzenesulfonamide] |  | > 100 |  | 
28 | CN(C)S(=O)(=O)c1ccc(Nc2ccc(C(=O)c3c(F)cccc3F)c(N)n2)cc1 [Cpd 7, 4-[[6-amino-5-(2,6-difluorobenzoyl)-2-pyridinyl]amino]-N,N-dimethylbenzenesulfonamide] | 0.26 | > 10 |  | 
